Test results published in patent US11045473B2, “Compositions and methods for therapy of prostate cancer using drug combinations to target polyamine biosynthesis and related pathways” (Health Research, Inc., priority 2015, dated 2021).

Legend:
Assay type in all cases: cell-based, human
[1] = system: LNG53 cells; assay: Antiproliferative activity of MTDIA in LNCaP cells overexpressing SAT1 in Tet-off system; details: (-) Tet conditions, Tet removed 24 hours prior to 96 hr MTDIA
Protocol: Tet was removed 24 hours prior to 96 hr treatment with MTDIA. […] Cells were pre-treated with BENSpm for 24 hours followed by 96 hr treatment with MTDIA.
We next analyzed whether the metabolic stress in CaP cells caused by high biosynthetic flux to maintain polyamine pools can be enhanced by increasing the activity of SAT1. We tested whether this could cause increased secretion of acetylated polyamines, putting intracellular pools in deficit, which should necessitate more biosynthesis, and should therefore potentiate any benefit of inhibiting the MSP. To conduct this analysis we used LNCaP cells that stably overexpress SAT1 in a Tet-off system (LNG53 cells, described in Kee, K., et al. J Biol Chem 279, 27050-27058 (2004)).

[2] = system: PC3; assay: Proliferation / IC50 by trypan blue cell counts, PC3; details: for IC50: Homo sapiens; for effect on cell growth: 8 and 12 days
Protocol: (§1) A transition state analog inhibitor of MTAP, Methylthio-DaDMe-Immucillin-A (MTDIA) was previously described and shown to be effective following a 6 or 12 day treatment at ˜10 and 100 nM MTDIA when 20 uM MTA was added to the media in both lung adenocarcinoma cell lines and head and neck squamous carcinoma cell lines, respectively [Basu I, et al. J Biol Chem. 2007; 282:21477-21486; Basu I, et al. J Biol Chem. 2011; 286:4902-491]. 32]. We synthesized MTDIA and the analytical data on the synthesized compound are shown in FIGS. 8A and 8B with the scheme used for synthesis shown in FIG. 6. […] In all three cell lines, the proliferation curves after 12 days of treatment show an IC50 of MTDIA>1 mM in the absence of MTA (FIG. 5B), but in the 10-100 nM range with the addition of 10 or 20 μM MTA. […] Nanomolar range IC50 values are highlighted.
(§2) IC50—The MTAP inhibitor (3R,4S)-1-[(9-Deaza-adenin-9-yl)methyl]-3-hydroxy-4-(methylthiomethyl)-pyrrolidine, or MT-DADMe-Immucillin-A (MTDIA) was synthesized following the synthesis scheme shown in FIG. 6 and based on a known approach. Cells were seeded at 125,000 cells/well (PC-3, DU145, LNCaP) in triplicate in 2 mLs of RPMI medium supplemented with 10% fetal bovine serum, and 1% penicillin streptomycin. After 24 hours the MTDIA and/or MTA was added at the indicated concentrations. Both medium and drug were refreshed every 48 hours. Every 96 hours the cells were trypsinized, ˜2% of cells were removed and counted by trypan blue exclusion and the rest were replated into a larger vessel.

[3] = system: MTAP; assay: Western blot of MTAP protein expression in DU145; details: DU145, 4 day IC25 and IC50 of MTDIA, presence or absence of MTA
Protocol: FIG. 9. (A) Proliferation curves for LNCaP, DU145 and PC3 treated with MTDIA in the absence or presence of 10 or 20 uM MTA, for 4 and (B) 8 days. […] (C) Western blot analysis of FaDu, LNCaP, and DU145 cells after indicated treatments of MTA (0, 10, or 20 uM) or the respective 4 day IC25 and IC50 dose of MTDIA for each cell line plus or minus MTA immunoblotted with antibodies against MTAP, SMS, and SRM, with B-actin as a loading control. Western blot images are representative of biological triplicates.
Western Blotting—Whole cell extracts were prepared in RIPA buffer (150 mM NaCl, 1.0% NP-40, 0.5% deoxycholate, 0.1% SDS, 50 mM Tris-HCl pH 8.0, 5 mM EDTA and 0.5 mM PMSF) supplemented with 1× proteinase inhibitor. Protein concentrations were determined by Bradford Assay (Thermo Scientific, Cat #1856209). […] MTAP for Westerns was purchased from Proteintech™ (Cat #11475-1-AP. SRM and SMS were purchased from Abcam® (Cat #ab111884 and ab156879). B-actin antibody for Westerns was purchased from Sigma-Aldrich (Cat #A5441) and GAPDH was from Santa Cruz Biotecnology Inc. (Cat #sc-25778). Films were scanned using the Biorad ChemiDoc XRS, and band intensities were calculated using Image Lab™. Intensity values were normalized to B-actin loading control band intensities and made relative to control treatment conditions.

[4] = system: LNCaP; assay: Proliferation / IC50 by trypan blue cell counts, LNCaP; details: for effect on cell growth: 8 and 12 days; for IC50: Homo sapiens
Protocol: as §1, §2

Question: What does the source list for `CSC[C@H]1CN(Cc2c[nH]c3c(N)ncnc23)C[C@@H]1O` [MTDIA, (3R,4S)-1-[(9-Deaza-adenin-9-yl)methyl]-3-hydroxy-4-(methylthiomethyl)-pyrrolidine]?
Answer: sensitivity to MTDIA when SAT1 is overexpressed [1]: much more sensitive; IC50 ([2]; PC-3, 96 h, PC3, 4 days, 0 μM MTA): > 1000 µM; IC50 ([2]; PC-3, 96 h, PC3, 4 days, 10 μM MTA): > 1000 µM; IC50 ([2]; PC-3, 96 h, PC3, 4 days, 20 μM MTA): 300 µM; IC50 ([2]; PC-3, 192 h, PC3, 8 days, 0 μM MTA): > 1000 µM; IC50 ([2]; PC-3, 192 h, PC3, 8 days, 10 μM MTA): 100 µM; IC50 ([2]; PC-3, 192 h, PC3, 8 days, 20 μM MTA): 0.09 µM; IC50 ([2]; PC-3, 288 h, PC3, 12 days, 0 μM MTA): > 1000 µM; IC50 ([2]; PC-3, 288 h, PC3, 12 days, 10 μM MTA): 80 µM; IC50 ([2]; PC-3, 288 h, PC3, 12 days, 20 μM MTA): 0.082 µM; IC50 ([2]; PC-3, 288 h, PC3, 12 days, with 10 or 20 μM MTA): 0.01 to 0.1 µM; effect on cell growth ([2]; PC3, 100 nM MTDIA, with 20 μM MTA): dramatic effect on cell growth; effect on cell growth ([2]; PC3, 100 nM MTDIA, without MTA): little to no effect; effect on growth ([2]; PC3, 100 nM MTDIA, 4 days, with or without 20 μM MTA): limited effects on growth; blocking cell growth ([2]; PC3, 6 days, low concentrations of MTDIA): no effect at blocking cell growth; MTAP expression [3]: upregulate expression of MTAP; effect on cell growth ([4]; 100 nM MTDIA, with 20 μM MTA): dramatic effect on cell growth; effect on cell growth ([4]; 100 nM MTDIA, without MTA): little to no effect; effect on growth ([4]; 100 nM MTDIA, 4 days, with or without 20 μM MTA): limited effects on growth; blocking cell growth ([4]; 6 days, low concentrations of MTDIA): no effect at blocking cell growth; IC50 ([4]; 96 h, 4 days, 0 μM MTA): > 1000 µM; IC50 ([4]; 96 h, 4 days, 10 μM MTA): > 1000 µM; IC50 ([4]; 96 h, 4 days, 20 μM MTA): 200 µM; IC50 ([4]; 192 h, 8 days, 0 μM MTA): > 1000 µM; IC50 ([4]; 192 h, 8 days, 10 μM MTA): 1 µM; IC50 ([4]; 192 h, 8 days, 20 μM MTA): 0.085 µM; IC50 ([4]; 288 h, 12 days, 0 μM MTA): > 1000 µM; IC50 ([4]; 288 h, 12 days, 10 μM MTA): 0.011 µM; IC50 ([4]; 288 h, 12 days, 20 μM MTA): 0.014 µM; IC50 ([4]; 288 h, 12 days, with 10 or 20 μM MTA): 0.01 to 0.1 µM
